Source: article PMC8659243, “Design, Synthesis and Tumour-Selective Toxicity of Novel 1-[3-{3,5-Bis(benzylidene)-4-oxo-1-piperidino}-3-oxopropyl]-4-piperidone Oximes and Related Quaternary Ammonium Salts” (Molecules, 2021)
Structures can show the parent of a compound that is named as a salt.

Key:
HSC-2 cells = assay: Cytotoxicity against HSC-2 cells, MTT method, 48 h; assay type: cell-based, human; conditions: for CC50: Homo sapiens, HSC-2, concentration required to kill 50% of the cells, 48 h, MTT; for SI HSC-2: average CC50 towards HGF, HPLF, HPC divided by CC50 against HSC-2
Description: (§1) A literature procedure was followed when the compounds in series 3 and 4 were evaluated against three human oral squamous cell carcinoma cell lines Ca9-22 (RCB-1976), HSC-2 (RCB1945), HSC-4 (RCB1902) (purchased from RIKEN Cell Bank, Tukuba, Japan) and three human normal oral cells, gingival fibroblast (HGF), periodontal ligament fibroblast (HPLF) and pulp cells (HPC) (established according to the guideline of the intramural ethic committee, A0808) except the duration of incubation was increased from 24 h to 48 h. In brief, various concentrations of the compounds were added to the DMEM media, which was supplemented by 10% heat-inactivated fetal bovine serum. Incubation was undertaken at 37 °C. At the completion of the experiment, cell viability was determined by the MTT method.

[1] = Average over HGF, HPLF and HPC non-malignant cells; assay type: cell-based; conditions: human, HPLF and HPC non-malignant cells (average of the three)
Description: as §1

[2] = Cytotoxicity against non-malignant HPLF cells, MTT method, 48 h; assay type: cell-based; conditions: human, periodontal ligament fibroblasts (HPLF)
Description: as §1

[3] = system: Ca9-22, HSC-2 and HSC-4 cells; assay: Average over Ca9-22, HSC-2 and HSC-4 neoplastic cells; assay type: cell-based, human; conditions: for CC50: Homo sapiens, average of Ca9-22, HSC-2 and HSC-4, read-out: Average CC50; for Average SI: average of SI for Ca9-22, HSC-2 and HSC-4
Description: In order to assess whether the compounds in series 3 and 4 are more toxic to neoplasms than non-malignant cells, selective index (SI) figures were calculated. In the in vivo situation, a tumour is surrounded by a number of non-malignant cells.
In order to identify the most promising lead compounds in terms of both cytotoxic potencies and favourable SI values, potency–selectivity expression (PSE) values were computed. […] Outstanding results may be noted for four compounds that have PSE values in excess of 100,000 namely 3d, 4c–e. […] However, the relative SI/PSE distribution patterns between series 3 and 4 (from a to h) are nearly superimposable with each other (Figure 3). […] It has been reported that 3,5-bis(3-iodo-5-methoxy-4-propoxybenzylidene)-N-acetylpiperidin-4-one inhibited tubulin and destabilization of microtubules, while 3,5-bis(3,4,5-trimethoxybenzylidene)-N-benzoylpiperidin-4-one destabilizes the microtubules. Thus, it remained to investigate whether compound 4d acts as an inhibitor of the microtubule.
as §1

[4] = Cytotoxicity against non-malignant HPC cells, MTT method, 48 h; assay type: cell-based; conditions: human, pulp cells (HPC)
Description: as §1

[5] = system: CEM T-lymphoblastic leukemia cells; assay: Cytotoxicity against CEM cells, MTT method, 24 h; assay type: cell-based; conditions: Homo sapiens, CCRF-CEM, concentration required to inhibit cell growth by 50%
Description: The method used for the evaluation of various compounds against human CEM cells has been reported previously. In brief, cells were grown in RPMI-1640 medium supplemented with 10% heat-inactivated fetal bovine serum. Different concentrations of compounds were added to the media, and after 24 h incubation, cytotoxicity was measured by the MTT method.

Ca9-22 cells = assay: Cytotoxicity against Ca9-22 cells, MTT method, 48 h; assay type: cell-based, human; conditions: for CC50: Homo sapiens, Ca9-22, concentration required to kill 50% of the cells, 48 h, MTT, read-out: CC50 Ca9-22; for SI Ca9-22: average CC50 towards HGF, HPLF, HPC divided by CC50 against Ca9-22
Description: as §1

[6] = Cytotoxicity against non-malignant HGF cells, MTT method, 48 h; assay type: cell-based; conditions: human, gingival fibroblasts (HGF)
Description: as §1

HSC-4 cells = assay: Cytotoxicity against HSC-4 cells, MTT method, 48 h; assay type: cell-based, human; conditions: for CC50: Homo sapiens, HSC-4, concentration required to kill 50% of the cells, 48 h, MTT, read-out: CC50 HSC-4; for SI HSC-4: average CC50 towards HGF, HPLF, HPC divided by CC50 against HSC-4
Description: as §1

HCT-116 cells = assay: NCI in vitro screen, colon cancer HCT-116; assay type: cell-based; conditions: Homo sapiens
Description: (§2) One particular reference drug is 5-fluorouracil, which is used in treating colon cancers.

colon cancer cells = assay: NCI in vitro screen, average of colon cancer cells; assay type: cell-based; conditions: Homo sapiens
Description: as §2

HCC-2998 cells = assay: NCI in vitro screen, colon cancer HCC-2998; assay type: cell-based; conditions: Homo sapiens
Description: as §2

SR cells = assay: NCI in vitro screen, leukemia SR; assay type: cell-based; conditions: Homo sapiens
Description: (§3) In view of the encouraging result with CEM leukemic cells, consideration was given to an assessment in the NCI in vitro screening program. The oximes, but not the quaternary ammonium salts, were accepted for bioevaluation. Examination of the mean graphs confirms the sensitivity of leukemic cells to these compounds.

KM12 cells = assay: NCI in vitro screen, colon cancer KM12; assay type: cell-based; conditions: Homo sapiens
Description: as §2

HT29 cells = assay: NCI in vitro screen, colon cancer HT29; assay type: cell-based; conditions: Homo sapiens, HT-29
Description: as §2

Colo205 cells = assay: NCI in vitro screen, colon cancer Colo205; assay type: cell-based; conditions: Homo sapiens, COLO 205
Description: as §2

RPMI-8226 cells = assay: NCI in vitro screen, leukemia RPMI-8226; assay type: cell-based; conditions: Homo sapiens
Description: as §3

HL-60 (TB) cells = assay: NCI in vitro screen, leukemia HL-60 (TB); assay type: cell-based; conditions: Homo sapiens
Description: as §3

SW-620 cells = assay: NCI in vitro screen, colon cancer SW-620; assay type: cell-based; conditions: Homo sapiens
Description: as §2

leukemia cells = assay: NCI in vitro screen, average of leukemia cells; assay type: cell-based; conditions: Homo sapiens
Description: as §3

HCT-15 cells = assay: NCI in vitro screen, colon cancer HCT-15; assay type: cell-based; conditions: Homo sapiens
Description: as §2

Molt-4 cells = assay: NCI in vitro screen, leukemia Molt-4; assay type: cell-based; conditions: Homo sapiens
Description: as §3

All Cell Lines = assay: NCI in vitro screen, all cell lines; assay type: cell-based; conditions: Homo sapiens
Description: as §2

K-562 cells = assay: NCI in vitro screen, leukemia K-562; assay type: cell-based; conditions: Homo sapiens, K562
Description: as §3

| SMILES | CC50 (HSC-2 cells) | SI HSC-2 (HSC-2 cells) | CC50 at 48 h [1] | CC50 at 48 h [2] | CC50 [3] | Average SI [3] | CC50 at 48 h [4] | IC50 [5] | CC50 (Ca9-22 cells) | SI Ca9-22 (Ca9-22 cells) | CC50 at 48 h [6] | CC50 (HSC-4 cells) | SI HSC-4 (HSC-4 cells) | also measured |
| --- | --- | --- | --- | --- | --- | --- | --- | --- | --- | --- | --- | --- | --- | --- |
| COc1ccc(/C=C2\CN(C(=O)CC[N+]3(C)CCC(=NO)CC3)C/C(=C\c3ccc(OC)cc3)C2=O)cc1 (stereo not shown) [Compound 4g, (3~{E},5~{E})-3,5-bis[(4-methoxyphenyl)methylene]-1-[3-(4-hydroximino-1-piperidyl)propanoyl]piperidin-4-one methiodide] | 680 ± 40 nM | 18.7 | 12700 nM | 16200 ± 4050 nM | 550 nM | 26.3 | 15600 ± 3160 nM | 13000 ± 950 nM | 310 ± 170 nM | 41.0 | 6300 ± 270 nM | 660 ± 50 nM | 19.2 | – |
| O=C1/C(=C/c2ccc(O)cc2)CN(C(=O)CCN2CCC(=NO)CC2)C/C1=C\c1ccc(O)cc1 [Compound 3i, (3~{E},5~{E})-3,5-bis[(4-hydroxyphenyl)methylene]-1-[3-(4-hydroximino-1-piperidyl)propanoyl]piperidin-4-one] | 18000 ± 2060 nM | 4.68 | 84200 nM | 88300 ± 4560 nM | 17900 nM | 4.71 | 99300 ± 1160 nM | 11100 ± 1010 nM | 16500 ± 2350 nM | 5.10 | 64900 ± 5660 nM | 19300 ± 1610 nM | 4.36 | – |
| COc1ccc(/C=C2\CN(C(=O)CCN3CCC(=NO)CC3)C/C(=C\c3ccc(OC)cc3)C2=O)cc1 [Compound 3g, (3~{E},5~{E})-3,5-bis[(4-methoxyphenyl)methylene]-1-[3-(4-hydroximino-1-piperidyl)propanoyl]piperidin-4-one hydrochloride] | 1560 ± 550 nM | 6.92 | 10800 nM | 12100 ± 1790 nM | 930 nM | 13.9 | 13600 ± 600 nM | 4350 ± 200 nM | 590 ± 60 nM | 18.3 | 6630 ± 60 nM | 650 ± 20 nM | 16.6 | IC50 (HCT-116 cells): 1740 nM; IC50 (colon cancer cells): 1840 nM; IC50 (HCC-2998 cells): 1860 nM; IC50 (SR cells): 620 nM; IC50 (KM12 cells): 1740 nM; IC50 (HT29 cells): 2040 nM; IC50 (Colo205 cells): 2040 nM; IC50 (RPMI-8226 cells): 650 nM; IC50 (HL-60 (TB) cells): 2820 nM; IC50 (SW-620 cells): 1380 nM; IC50 (leukemia cells): 1880 nM; IC50 (HCT-15 cells): 2140 nM; IC50 (Molt-4 cells): 2950 nM; IC50 (All Cell Lines): 1280 nM; IC50 (K-562 cells): 1200 nM |
| COc1cc(/C=C2\CN(C(=O)CC[N+]3(C)CCC(=NO)CC3)C/C(=C\c3cc(OC)c(OC)c(OC)c3)C2=O)cc(OC)c1OC (stereo not shown) [Compound 4h, (3~{E},5~{E})-1-[3-(4-hydroximino-1-piperidyl)propanoyl]-3,5-bis[(3,4,5-trimethoxyphenyl)methylene]piperidin-4-one methiodide] | 220 ± 40 nM | 6.50 | 1430 nM | 1320 ± 40 nM | 160 nM | 11.6 | 2350 ± 820 nM | 5120 ± 140 nM | 70 ± 10 nM | 20.4 | 620 ± 60 nM | 180 ± 40 nM | 7.94 | – |
